The results in this text go back to US8178688B2, “Benzamidine derivatives, process for the preparation thereof and pharmaceutical composition comprising the same” (Dong Wha Pharmaceutical Co., Ltd., priority 2004, dated 2012).

One series has as its system ovariectomized ddY mouse. The series is described as follows: Therapeutic effect in the ovariectomized osteoporetic mouse model (trabecular bone volume of the femur). As to conditions: 50 mg/kg/day oral gavage for 4 weeks from 4 weeks after ovariectomy, salts (methansulfonic acid or HCl); for change in vivo at 50 mg/kg: Mus musculus, 672 h, read-out: Changes on TBV (% changes vs vehicle control). It counts as in vivo, ddY mice. The essentials:
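Female ddY mice, bilaterally ovariectomized; benzamidine salts (methanesulfonate or HCl) given orally at 50 mg/kg/day for 4 weeks, starting 4 weeks post-surgery. Femoral trabecular bone volume (%) measured histomorphometrically on H&E sections of trochlea epiphyseal region; reported as percentage change versus vehicle control.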

For series [1], the system named is mouse models of ovalbumin-induced asthma. As to the kind of experiment: Therapeutic effect in mouse model of asthma induced with ovalbumin (lung weight, total leukocytes in blood and BALF). In kind it is in vivo, C57BL/6 mice. As to conditions: for Changes on the lung weight, Relative (%) / Total leukocytes in peripheral blood (×10^3/1 mm^3) / Total leukocytes in BALF (×10^5/1 ml): 200 mg/kg oral once a day; for Changes on the lung weight, Relative (%): % of body weight, vehicle control 0.780 ± 0.103, sham 0.694 ± 0.049; for Total leukocytes in peripheral blood (×10^3/1 mm^3): vehicle control 14.49 ± 0.88, sham 10.27 ± 0.93; for Total leukocytes in BALF (×10^5/1 ml): vehicle control 75.68 ± 4.67, sham 51.75 ± 2.15. Here is the method: The benzamidine compounds were assated for therapeutic effect on allergic inflammation in mouse models of ovalbumin-induced asthma. Starting on the day of immunization the benzamidine compounds were dosed for 17 consecutive days. The experimental animals were re-exposed to ovalbumin 14 days after the sensitization and then sacrificed 3 days after the re-exposure. Changes in lung weight, cellular components of peripheral blood and bronchoalveolar lavage fluid, and lung histopathology were observed.
A total of 110 female C57BL/6 mice (7-week-old, SLC, Japan) were adapted to a laboratory environment for 6 days before being used in earnest experiments. While being housed at a densirt of five in a plastic cage, the experimental animals were breed in a breeding room with controlled temperature (20-25° C.) and humidity (30-35%). Under light-dark cycles of 12 hours, mice were allowed to have free access to feedstuff and tap water. While asthma was induced in 100 mice by ovalbumin, 10 mice were used as a non-treated group.
200 mg of benzamidine compounds (Methansulfonic acid or Hydrochloride) were completely dissolved in 5 ml of sterilized distilled water. The benzamidine compound in the solutions was orally administered at doses of 200 mg per kg of body weight once a day from the day of the sensitization with ovalbumin. The control group was administered with equal volumes of sterilized distilled water in the same manner.
A solution of 200 μg of ovalbumin (Grade VI; Sigma, st. Louis, Mo., USA) and 180 mg of aluminium hydroxide (Al(OH)3, dried powder gel; Aldrich, Milwaukee, USA) in 4 ml of physiological saline was allowed to stand at 4° C. overnight and was administered to the experimental animals (200 μl, abdominal injection) for sensitization. As for the non-treated group, a solution of only aluminium hydroxide in saline was injected. 15 days after sensitization, a 1.5% ovalbumin solution was sprayed in air using a nebulizer, followed by exposing the experimental animals to the spray for 10 min to induce asthma therein. The non-treated group was exposed only to saline in the same manner. All the experimental animals were sacrificed 3 days after the exposure.
On the final day of experiment, the lungs were separated form adjacent organs. The removed lungs were weight among individual animals, the relative weight of the lungs was calculated as a percentage of body weight using the following Equation 3. Relative weight of Lung(%)=(Absolute lung weight/Body weight)×100 Equation 3
On the final day of experiment, all the experimental animals were etherized and underwent laparotomy to expose the abdominal vena cava, from which 1 ml of blood was the taken. Using a hemocytometer, a blood sample was measured for total leukocyte counts in a ×10^3/1 mm^3 units.
On the final day of experiment, secretions present in bronchi and alveola were examined for cyrological constitution. After veing etherized, the experimental animals were operated to open the cervical region and the thorax. The jugular vein was allowed to bleed, followed by endotracheal intubation. 3 ml of phosphate buffered saline was injected twice through the tube and the thorax was massaged for 30 sec to obtain cell suspension from the lungs. Using a hemocytometer, a […] was measured for total leukocyte counts in a ×10^5/1 ml units.

A further series relates to osteoblast. The series is described as follows: Effect on bone formation (osteoblast nodule mineralization, Alizarin red S). It counts as cell-based, ICR mice. Particulars: calvarial osteoblast in osteogenic differentiation medium. Here is the method: The osteoblast, treated in this experiment, was prepared from the osteoblast as prepared in the above.
The osteoblast, isolated from sequential enzymatic treatment of calvariae from neonated ICR mice, was cultured in α-MEM medium containing 10% FBS for 4˜5 days. The osteoblast was also cultured for 24 hr after seeding the cells on a 12 well plate (10^5 cell/well), and medium was exchanged with the osteogenic differentiation medium containing 10 mM β-glycerophosphate and 50 μg/ml ascorbic acid.
The test substances at the concentration of 0.1 uM and 0.1 nM were added to the above medium for evaluating the effect promoting bone formation. The differentiation medium containing the test substances was exchanged every 3 or 4 days for 14 to 21 days until confirming the nodule mineralization.
The cell was rinsed twice with distilled water, and fixed by the 10% formalin solutions for 30 minutes. Alizarin red S and Von-kossa Solution were treated on the plate for measuring deposited calcium and phosphate in cell matrix, and the activity of the test substances on the bone formation was analyzed by determining stained area.
Additionally, for the purpose of estimating quantitative Arizarin red S in cell matrix, stained Arizarin red S was extracted by treating 10 mM sodium phosphate solution (pH 7.0), containing 10% cetylpyridinium chloride, for 15˜30 minutes in the shaking incubator, and then the amount of the deposited calcium was estimated by calculating the absorbance of the extracted Arizarin red S at 564 nm. […]

Setting [2] is: 200 mg/kg oral once a day from sensitization, vehicle control 0.134 ± 0.012, sham 0.110 ± 0.009.

Broadly, the melting point is the temperature, or range, at which the solid turns liquid. With `Cc1sc(-c2cccnc2)nc1-c1ccc(OCCCCCOc2ccc(C(=N)NO)cc2)cc1` [Example 13, N-hydroxy-4-(5-[4-(5-methyl-2-pyridin-3-yl-1,3-thiazol-4-yl)phenoxy]pentoxy)-benzamidine], the melting point was 138 to 150 °C. In addition, the change in vivo at 50 mg/kg with ovariectomized ddY mouse came to 82%. For the same compound, in series [1] (setting [2]), the “Changes on the lung weight, Absolute” value is 0.108 ± 0.009 g. In series [1], the “Changes on the lung weight, Relative (%)” value came to 0.695 ± 0.075%; the “Total leukocytes in peripheral blood (×10^3/1 mm^3)” value (from here on “Total leukocytes … (×10^3/1 mm^3)”) is reported as 14.06 ± 1.07 ×10^3/1 mm^3; the “Total leukocytes in BALF (×10^5/1 ml)” value is on record as 72.75 ± 4.88 ×10^5/1 ml.
`CC(C)c1nc(-c2ccc(OCCCCCOc3ccc(C(=N)NO)cc3)cc2)c(CC2CCCC2)s1` [Example 47, N-hydroxy-4-(5-[4-(5-cyclopentylnnethyl-2-isopropyl-1,3-thiazol-4-yl)phenoxy]pentoxy)-benzamidine]: the “bone forming activity (%)” value with osteoblast (0.1 nM) is reported as 9.4%. Further, the “bone forming activity (%)” value in the series with osteoblast (0.1 μM) came to 11.31%. The “Changes on TBV (% changes vs vehicle control)” value with ovariectomized ddY mouse was determined as 139.8%. Moreover, in series [1] (setting [2]), the “Changes on the lung weight, Absolute (g)” value is listed as 0.122 ± 0.010 ## g. In series [1], the “Changes on the lung weight, Relative (%)” value was found to be 0.706 ± 0.059%; the “Total leukocytes … (×10^3/1 mm^3)” value is 12.55 ± 1.35 # ×10^3/1 mm^3; the “Total leukocytes in BALF (×10^5/1 ml)” value is 62.40 ± 7.56 # ×10^5/1 ml.
Turning to `CCCN(CCC)c1nc(-c2ccc(OCCCCCOc3ccc(C(=N)NO)cc3)cc2)c(CC)s1` [Example 138, N-hydroxy-4-(5-[4-(2-dipropylamino-5-ethyl-1,3-thiazol-4-yl)phenoxy]pentoxy)-benzamidine], the “bone forming activity (%)” value in the series on osteoblast (0.1 nM) is given as 8.81%. The “bone forming activity (%)” value in the series with osteoblast (0.1 μM) was 6.32%. The change in vivo at 50 mg/kg in the series on ovariectomized ddY mouse came to 164%. The “Changes on the lung weight, Absolute” value in series [1] (setting [2]) turned out to be 0.113 ± 0.011 g. Moreover, in series [1], the “Changes on the lung weight, Relative (%)” value was found to be 0.691 ± 0.065 %; the “Total leukocytes … (×10^3/1 mm^3)” value is listed as 13.60 ± 0.83 # ×10^3/1 mm^3; the “Total leukocytes in BALF (×10^5/1 ml)” value is on record as 68.83 ± 5.29 ## ×10^5/1 ml.
